{"source": "paper PMC8191315", "about": "(European Journal of Medicinal Chemistry, 2021)", "data": [{"target": "SARS-CoV-2 RdRp (Severe acute respiratory syndrome coronavirus 2, UniProt P0DTD1)", "type": "cell-based", "details": "5 μM and 10 μM, HEK293T cells, 24 h, real-time qRT-PCR", "values": [{"smiles": "O=C(CSc1c[nH]c2cccc(Br)c12)N(Cc1ccccc1)Cc1ccccc1", "note": "[6d2, N,N-dibenzyl-2-((4-bromo-1H-indol-3-yl)thio)acetamide]", "levels of viral plus- and minus-strand Gluc RNA": "decreased the levels of viral plus- and minus-strand Gluc RNA in a dose-dependent manner"}, {"smiles": "CCOc1ccccc1CN(OC)C(=O)CSc1c[nH]c2cccc(Br)c12", "note": "[6d5, N-(2-ethoxybenzyl)-2-((4-bromo-1H-indol-3-yl)thio)-N-methoxyacetamide]", "levels of viral plus- and minus-strand Gluc RNA": "decreased the levels of viral plus- and minus-strand Gluc RNA in a dose-dependent manner"}, {"smiles": "CN(Cc1ccccc1)C(=O)CSc1c[nH]c2ccccc12", "note": "[6b5, 2-((1H-indol-3-yl)thio)-N-benzyl-N-methylacetamide]", "levels of viral plus- and minus-strand Gluc RNA": "decreased the levels of viral plus- and minus-strand Gluc RNA in a dose-dependent manner"}, {"smiles": "COc1ccccc1CNC(=O)CSc1c[nH]c2c(-c3ccccc3)cccc12", "note": "[6c9, N-(2-methoxybenzyl)-2-((7-phenyl-1H-indol-3-yl)thio)acetamide]", "levels of viral plus- and minus-strand Gluc RNA": "decreased the levels of viral plus- and minus-strand Gluc RNA in a dose-dependent manner"}, {"smiles": "O=C(CSc1c[nH]c2ccccc12)N(Cc1ccccc1)Cc1ccccc1", "note": "[6b2, N,N-dibenzyl-2-((1H-indol-3-yl)thio)acetamide]", "levels of viral plus- and minus-strand Gluc RNA": "decreased the levels of viral plus- and minus-strand Gluc RNA in a dose-dependent manner"}]}]}
